The text below walks through data of patent US20250205253A1, “PHARMACEUTICAL COMPOSITION FOR PREVENTING OR TREATING BENIGN PROSTATIC HYPERPLASIA” (University-Industry Cooperation Group of Kyung Hee …, priority 2023, published 2025).

This data set deals with siRNA-transfected RWPE-1 cells. The experiment in a line: siRNA transfection (NLRP3 or AR knockdown) with qRT-PCR in RWPE-1 cells. Format: cell-based, human. How it is done: Total RNA was isolated using Easy-Blue® reagent (iNtRON Biotechnology, Inc., Gyeonggi, Korea) and transcribed into complementary DNA (cDNA) according to the manufacturer's instructions. Oligonucleotide primers (Table 1) were purchased from Bioneer Corporation (Daejeon, Korea). qRT-PCR was performed according to the known method.
The RWPE-1 cells were transfected with siRNA (Bioneer Corporation) or pmaxGFP™ vector using a 4D-Nucleofector™ system (Lonza, Basel, Switzerland). The following siRNA nucleotide sequences were used: NLRP3 siRNA, […]=tt(1-AS) (SEQ ID NO.: 39) and […]=tt (1-AA) (SEQ ID NO.: 40) and AR siRNA, […]=tt (6-AS) (forward) (SEQ ID NO.: 41) and […]=tt (6-AA) (reverse) (SEQ ID NO.: 42). After four hours of incubation, the cells were treated in the presence or absence of MitoQ 100 μM. The effect of NLRP3 or AR knockdown was detected using qRT-PCR.

Take “NLRP3 siRNA: siRNA CGUGACAGUCCUUCUGGAA=tt (SEQ ID NO.: 39) and UUCCAGAAGGACUGUCACG=tt (SEQ ID NO.: 40) (3' dTdT overhangs, further chemistry not given here)”: the “AR level (mRNA) in NLRP3 siRNA-transfected cells” value (DHT stimulation, with or without 100 μM MitoQ, FIG. 3D) is recorded as “significantly increased”. Further, under “DHT-stimulated RWPE-1, vs GFP-transfected cells, FIG. 2C”, the “NLRP3 and IL-1β levels after siRNA transfection” value is recorded as “notably suppressed”. Under “RWPE-1 cells, FIG. 2G”, the “NLRP3 mRNA expression after siRNA transfection” value is “significant decrease”.

For “AR siRNA: siRNA CUCUCUUCACAGCCGAAGA=tt (SEQ ID NO.: 41) and UCUUCGGCUGUGAAGAGAG=tt (SEQ ID NO.: 42) (3' dTdT overhangs, further chemistry not given here)”, the “NLRP3 level (mRNA) in AR siRNA-transfected cells” value (DHT stimulation, with or without 100 μM MitoQ, FIG. 3E) is recorded as “significantly enhanced”.
